Data on 29 molecules can be found in patent publication US7960377B2 (priority 2008, dated 2011).

One experiment concerns the target T1, rat CB2 receptor (Rattus norvegicus, UniProt Q9QZN9).
T1 sequence (Q9QZN9 1-360): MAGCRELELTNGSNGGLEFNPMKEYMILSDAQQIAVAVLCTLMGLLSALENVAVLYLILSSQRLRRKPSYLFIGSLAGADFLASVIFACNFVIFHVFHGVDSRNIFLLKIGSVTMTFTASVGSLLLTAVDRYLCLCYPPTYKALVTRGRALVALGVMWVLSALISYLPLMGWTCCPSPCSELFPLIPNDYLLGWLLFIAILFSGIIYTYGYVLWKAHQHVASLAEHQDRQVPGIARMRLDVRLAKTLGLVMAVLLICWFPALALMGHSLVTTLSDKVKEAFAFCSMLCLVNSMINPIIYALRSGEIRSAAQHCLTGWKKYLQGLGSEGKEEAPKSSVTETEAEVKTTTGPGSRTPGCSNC
The experiment is described as follows: cell-based. The class given is cell-based.

The target in the next experiment is human CB1 receptor (Homo sapiens, UniProt P21554). Description: cell-based.
Chain of human CB1 receptor (P21554 whole entry): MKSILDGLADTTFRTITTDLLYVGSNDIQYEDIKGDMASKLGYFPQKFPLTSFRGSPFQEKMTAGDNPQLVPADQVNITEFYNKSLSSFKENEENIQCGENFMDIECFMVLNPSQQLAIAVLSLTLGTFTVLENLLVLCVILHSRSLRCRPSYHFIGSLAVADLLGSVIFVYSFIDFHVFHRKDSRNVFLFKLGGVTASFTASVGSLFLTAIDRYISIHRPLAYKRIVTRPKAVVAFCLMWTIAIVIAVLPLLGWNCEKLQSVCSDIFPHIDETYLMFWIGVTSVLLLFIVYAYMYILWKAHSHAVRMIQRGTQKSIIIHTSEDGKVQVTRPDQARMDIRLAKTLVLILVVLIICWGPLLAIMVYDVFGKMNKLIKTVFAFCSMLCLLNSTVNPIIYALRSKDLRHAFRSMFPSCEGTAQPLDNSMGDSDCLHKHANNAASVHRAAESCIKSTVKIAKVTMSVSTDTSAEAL

Take `CC(C)CNS(=O)(=O)N1CCOc2ncc(C(=O)NC(C)(C)C)cc21` [Example 180, N-tert-butyl-1-(N-isobutylsulfamoyl)-2,3-dihydro-1H-pyrido[2,3-b][1,4]oxazine-7-carboxamide]: the results for the EC50 at rat CB2 receptor and on human CB1 receptor were no more than 30 nM and greater than 30000 nM, respectively.
As to `O=C(NCC1CC1)c1cnc2c(c1)N(S(=O)(=O)c1ccc(Cl)cc1)CCO2` [Example 33, 1-(4-chlorophenyl-sulfonyl)-N-(cyclopropyl-methyl)-2,3-dihydro-1H-pyrido[2,3-b][1,4]oxazine-7-carboxamide], the EC50 (commonly the concentration that produces a half-maximal response) on rat CB2 receptor was no more than 30 nM; on human CB1 receptor, greater than 30000 nM.
The matching figures for `CC(C)(CN1CCOCC1)NC(=O)c1cnc2c(c1)N(S(=O)(=O)c1ccc(C(F)(F)F)cc1)CCO2` [Example 46, N-(2-methyl-1-morpholinopropan-2-yl)-1-(4-(trifluoromethyl)phenylsulfonyl)-2,3-dihydro-1H-pyrido[2,3-b][1,4]oxazine-7-carboxamide]: no more than 30 nM and greater than 30000 nM.
As for `CC(C)(C)NC(=O)c1cnc2c(c1)N(S(=O)(=O)c1cccc(Cl)c1)CCO2` [Example 89, N-tert-butyl-1-(3-chlorophenylsulfonyl)-2,3-dihydro-1H-pyrido[2,3-b][1,4]oxazine-7-carboxamide], the results for the EC50 on rat CB2 receptor and on human CB1 receptor were no more than 30 nM and greater than 30000 nM, respectively.
The like results for `CC1CCN(S(=O)(=O)N2CCOc3ncc(C(=O)NC(C)(C)C)cc32)CC1` [Example 170, N-tert-butyl-1-(4-methylpiperidin-1-ylsulfonyl)-2,3-dihydro-1H-pyrido[2,3-b][1,4]oxazine-7-carboxamide] were, in that order, no more than 30 nM and greater than 30000 nM.
The like results for `CCOC(=O)C1(NC(=O)c2cnc3c(c2)N(S(=O)(=O)c2ccc(Cl)c(Cl)c2)CCO3)CCC1` [Example 139, ethyl 1-(1-(3,4-dichloro-phenylsulfonyl)-2,3-dihydro-1H-pyrido[2,3-b][1,4]oxazine-7-carboxamido)cyclobutane-carboxylate] were, in that order, no more than 30 nM and greater than 30000 nM.
The matching figures for `CC(C)(C)NC(=O)c1cnc2c(c1)N(S(=O)(=O)c1ccc(C(F)(F)F)cc1)CCO2` [Example 26, N-tert-butyl-1-(4-(trifluoromethyl)phenylsulf-onyl)-2,3-dihydro-1H-pyrido[2,3-b][1,4]oxazine-7-carboxamide]: no more than 30 nM and greater than 30000 nM.
At rat CB2 receptor, `COCCN(C(=O)c1cnc2c(c1)N(S(=O)(=O)c1ccc(C(F)(F)F)cc1)CCO2)C(C)(C)C` [Example 43, N-tert-butyl-N-(2-methoxyethyl)-1-(4-(trifluoromethyl)phenylsulf-onyl)-2,3-dihydro-1H-pyrido[2,3-b][1,4]oxazine-7-carboxamide] registered an EC50 of no more than 30 nM. In addition, the “inverse agonist mark, human CB1 receptor” value at human CB1 receptor (asterisk at the compound number) is 11, 24, 25, 42, 43*, 67, 117*, 121, 124, 131, 132, 148, 150, 151,.
As to `CC(C)(C)NC(=O)c1cnc2c(c1)N(S(=O)(=O)c1cccc(F)c1)CCO2` [Example 20, N-tert-butyl-1-(3-fluorophenylsulfonyl)-2,3-dihydro-1H-pyrido[2,3-b][1,4]oxazine-7-carboxamide], the EC50 at rat CB2 receptor is no more than 30 nM; on human CB1 receptor it was greater than 30000 nM.
The matching figures for `CCOC(=O)C1(NC(=O)c2cnc3c(c2)N(S(=O)(=O)c2ccc(C(F)(F)F)cc2)CCO3)CC1` [Example 70, ethyl 1-(1-(4-(trifluoromethyl)phenylsulf-onyl)-2,3-dihydro-1H-pyrido[2,3-b][1,4]oxazine-7-carboxamido)-cyclopropanecarboxylate]: no more than 30 nM and greater than 30000 nM.
The like results for `CC(C)(C)NC(=O)c1cnc2c(c1)N(S(=O)(=O)c1ccccc1F)CCO2` [Example 22, N-tert-butyl-1-(2-fluorophenylsulfonyl)-2,3-dihydro-1H-pyrido[2,3-b][1,4]oxazine-7-carboxamide] were, in that order, no more than 30 nM and greater than 30000 nM.
The like results for `CC(C)(CN1CCOCC1)NC(=O)c1cnc2c(c1)N(S(=O)(=O)c1ccc(Cl)cc1F)CCO2` [Example 113, 1-(4-chloro-2-fluorophenylsulfonyl)-N-(2-methyl-1-morpholinopropan-2-yl)-2,3-dihydro-1H-pyrido[2,3-b][1,4]oxazine-7-carboxamide] were, in that order, no more than 30 nM and greater than 30000 nM.
As to `CC(C)(O)CNC(=O)c1cnc2c(c1)N(S(=O)(=O)c1ccc(Cl)c(Cl)c1)CCO2` [Example 98], the results for the EC50 at rat CB2 receptor and on human CB1 receptor were no more than 30 nM and greater than 30000 nM, respectively.
The matching figures for `O=C(NC1CCCC1)c1cnc2c(c1)N(S(=O)(=O)c1ccccc1F)CCO2` [Example 23, N-cyclopentyl-1-(2-fluorophenylsulfonyl)-2,3-dihydro-1H-pyrido[2,3-b][1,4]oxazine-7-carboxamide]: no more than 30 nM and greater than 30000 nM.
The matching figures for `CCOC(=O)C1(NC(=O)c2cnc3c(c2)N(S(=O)(=O)c2ccc(C(F)(F)F)cc2)CCO3)CCC1` [Example 71, ethyl 1-(1-(4-(trifluoro-methyl)phenylsulfonyl)-2,3-dihydro-1H-pyrido-[2,3-b][1,4]oxazine-7-carboxamido)cyclo-butanecarboxylate]: no more than 30 nM and greater than 30000 nM.
The matching figures for `O=C(NC1CCC1)c1cnc2c(c1)N(S(=O)(=O)c1ccc(Cl)c(Cl)c1)CCO2` [Example 137, N-cyclobutyl-1-(3,4-dichlorophenylsulfonyl)-2,3-dihydro-1H-pyrido[2,3-b][1,4]oxazine-7-carboxamide]: no more than 30 nM and greater than 30000 nM.
For the molecule `CC1(C)N=C(c2cnc3c(c2)N(S(=O)(=O)c2ccc(C(F)(F)F)cc2)CCO3)NO1` [Example 223, 7-(5,5-dimethyl-2,5-dihydro-1,2,4-oxadiazol-3-yl)-1-(4-(trifluoromethyl)phenylsulfonyl)-2,3-dihydro-1H-pyrido[2,3-b][1,4]oxazine], the EC50 was no more than 30 nM on rat CB2 receptor and greater than 30000 nM at human CB1 receptor.
For the molecule `CC(C)(CN1CCOCC1)NC(=O)c1cnc2c(c1)N(S(=O)(=O)c1ccc(Cl)c(Cl)c1)CCO2` [Example 112, 1-(3,4-dichlorophenylsulfonyl)-N-(2-methyl-1-morpholinopropan-2-yl)-2,3-dihydro-1H-pyrido[2,3-b][1,4]oxazine-7-carboxamide], the EC50 at rat CB2 receptor was no more than 30 nM.
Molecule `CC(C)(CO)NC(=O)c1cnc2c(c1)N(S(=O)(=O)N1CCC(F)CC1)CCO2` [Example 168, 1-(4-fluoropiperidin-1-ylsulfonyl)-N-(1-hydroxy-2-methylpropan-2-yl)-2,3-dihydro-1H-pyrido[2,3-b][1,4]oxazine-7-carboxamide] showed an EC50 at rat CB2 receptor of no more than 30 nM.
The same measure, in the same setting: the value for `O=S(=O)(c1ccc(F)cc1)N1CCOc2ncc(-c3nc4ncccc4o3)cc21` [Example 217] was no more than 30 nM; that for `CNC(=O)[C@@H](N(C)C(=O)c1cnc2c(c1)N(S(=O)(=O)c1ccc(F)cc1)CCO2)C(C)(C)C` [Example 58, (S)-N-(3,3-dimethyl-1-(methylamino)-1-oxobutan-2-yl)-1-(4-fluorophenylsulfonyl)-N-methyl-2,3-dihydro-1H-pyrido[2,3-b][1,4]oxazine-7-carboxamide] was no more than 30 nM.
The same measure, in the same setting: in the case of `CC(C)(CO)NC(=O)c1cnc2c(c1)N(S(=O)(=O)N1CCC(F)(F)CC1)CCO2` [Example 157, 1-(4,4-difluoropiperidin-1-ylsulfonyl)-N-(1-hydroxy-2-methylpropan-2-yl)-2,3-dihydro-1H-pyrido[2,3-b][1,4]oxazine-7-carboxamide] it was no more than 30 nM; in that of `CCC(C)(C)NC(=O)c1cnc2c(c1)N(S(=O)(=O)N1CCC(F)(F)C1)CCO2` [Example 164, 1-(3,3-difluoropyrrolidin-1-ylsulfonyl)-N-tert-pentyl-2,3-dihydro-1H-pyrido[2,3-b][1,4]oxazine-7-carboxamide], no more than 30 nM.
Still for that read-out and setting: in the case of `O=S(=O)(c1ccc(C(F)(F)F)cc1)N1CCOc2ncc(-c3ncc(-c4ccccc4)o3)cc21` [Example 227, 7-(5-phenyloxazol-2-yl)-1-(4-(trifluoromethyl)phenyl-sulfonyl)-2,3-dihydro-1H-pyrido[2,3-b][1,4]oxazine] it was no more than 30 nM; in that of `CC(C)(O)CNC(=O)c1cnc2c(c1)N(S(=O)(=O)c1ccc(F)c(F)c1)CCO2` [Example 109, 1-(3,4-difluorophenylsulfonyl)-N-(2-hydroxy-2-methylpropyl)-2,3-dihydro-1H-pyrido[2,3-b][1,4]oxazine-7-carboxamide], no more than 30 nM.
On to `C[C@H]1CCCCN1C(=O)c1cnc2c(c1)N(S(=O)(=O)c1ccc(C(F)(F)F)cc1)CCO2` [Example 69, (S)-(2-methylpiperidin-1-yl)(1-(4-(trifluoromethyl)-phenylsulfonyl)-2,3-dihydro-1H-pyrido[2,3-b][1,4]oxazin-7-yl)-methanone], for which, on rat CB2 receptor, the EC50 is no more than 30 nM.
The same measure, in the same setting: in the case of `CC1(C)COCN1C(=O)c1cnc2c(c1)N(S(=O)(=O)c1ccc(Cl)c(Cl)c1)CCO2` [Example 124, (1-(3,4-dichlorophenyl-sulfonyl)-2,3-dihydro-1H-pyrido[2,3-b][1,4]oxazin-7-yl)(4,4-dimethyl-oxazolidin-3-yl)methanone] it was no more than 30 nM; in that of `CN(CC(C)(C)CO)C(=O)c1cnc2c(c1)N(S(=O)(=O)c1ccc(Cl)c(Cl)c1)CCO2` [Example 121, 1-(3,4-dichlorophenylsulfonyl)-N-(3-hydroxy-2,2-dimethylpropyl)-N-methyl-2,3-dihydro-1H-pyrido[2,3-b][1,4]oxazine-7-carboxamide], no more than 30 nM; in that of `COCCCNC(=O)c1noc(-c2cnc3c(c2)N(S(=O)(=O)c2ccc(F)cc2)CCO3)n1` [Example 216, 5-(1-(4-fluorophenylsulfonyl)-2,3-dihydro-1H-pyrido[2,3-b] [1,4]oxazin-7-yl)-N-(3-methoxypropyl)-1,2,4-oxadiazole-3-carboxamide], no more than 30 nM.
